# Read-outs that look alike come from different tables or passages of the source.
# Legend:
# [1] = test system: β-CTF; assay: Western blot, β-CTF level; type: cell-based, human; details: Swedish APP mutant SH-SY5Y cells; sulfuretin 2.5, 5, 10 and 20 μM for 24 h; dose-dependent (p<0.001)
# Procedure: (§1) For the experiments shown in FIGS. 11 to 13, SH-SY5Y and stable swedish APP mutant SH-SY5Y cells were grown in DMEM supplemented with 10% heat-inactivated FBS and 0.1% penicillin/streptomycin at 37° C. in a humidified atmosphere of 5% CO2 and 95% air. Cells were fed every three days and sub-cultured once they reached 80-90% confluency in […] cell culture dishes. Amyloid beta25-35 was prepared as a 20 mM stock immediately before use and diluted in PBS to the indicated final concentration. Prior to use, amyloid beta25-35 was dissolved in sterilized distilled water and was aggregated at 37° C. for five days. The test compounds were dissolved in DMSO and the stock solutions were added directly to the culture media to a final concentration of 0.1% (v/v) DMSO.
# SH-SY5Y and stable swedish APP mutant SH-SY5Y cells (1×10^6 cells/well in 6-well plates) were incubated at 37° C. with or without 20 μM amyloid beta 25-35 for 6 or 24 h, with or without sulfuretin pretreatment, and then washed and harvested with ice-cold PBS and centrifuged at 400×g for 3 minutes. […] The protein concentration was determined using a protein assay kit (Thermo Scientific). […] Protein bands were quantified by densitometric analysis using Image Gauge 4.0 software (Fujifilm, Stamford, Conn., USA). […]
# [2] = test system: SH-SY5Y and PC12 cells; assay: MTT (cell viability) test, SNP-induced cell death; type: cell-based
# [3] = test system: Tau; assay: Western blot, amyloid beta25-35-induced hyperphosphorylation of Tau; type: cell-based, human; details: SH-SY5Y cells; pretreatment with sulfuretin at 20 μM; 20 μM amyloid beta25-35 (p<0.01)
# [4] = test system: SH-SY5Y cells; assay: MTT assay, amyloid beta25-35-induced cell death; type: cell-based, human; details: pretreated with sulfuretin at 2.5, 5, 10 and 20 μM for 30 minutes, then 20 μM amyloid beta25-35 for 24 hours (p<0.05 and p<0.001)
# Procedure: as §1
# First of all, MTT assay was performed to determine the neuroprotective effects of sulfuretin on amyloid beta25-35-induced cell death. […] The dark-blue formazan crystals formed in intact cells were dissolved in DMSO, and the absorbance at 540 nm was measured with a microplate reader (SpectraMax 250, Molecular Device, Sunnyvale, Calif., USA). The results were expressed as the percentage of MIT reduction relative to the absorbance of control cells.
# [5] = test system: SH-SY5Y cells; assay: MTT (cell viability) test, induced cell death in SH-SY5Y cells; details: Homo sapiens, SH-SY5Y; for viability at 0.1 µg/mL: sulfuretin 0.1 μg/ml; for viability at 0.5 µg/mL: sulfuretin 0.5 μg/ml; for viability at 1 µg/mL: sulfuretin 1 μg/ml; for viability at 5 µg/mL: sulfuretin 5 μg/ml
# Procedure: The incubator was maintained at a temperature of 37° C., and a mixed gas of 95% air and 5% CO2 was continuously supplied thereto to provide suitable conditions for cell culture. The cells were cultured in a 6-well plate or a 96-well plate at each of densities of 1×10^6 and 2×10^4 cells/well 24 hours before the experiment. […] Sulfuretin was used in ethanol and used at a final concentration of 0.1% or less.
# To measure cell viability, an MTT reduction assay was used. An MTT solution was added to each well of the 96-well plate (in which the cells have been cultured) to a final concentration of 0.5 mg/ml. The plate was incubated in an incubator for 2 hours, and the medium and the MIT solution were removed, after which DMSO was added thereto and stirred. When DMSO was completely dissolved, the UV absorbance at 540 nm was measured using a microplate reader (Molecular device, USA).
# The measured absorbance was substituted into the following equation to calculate cell viability:
# Cell viability (%)=[(O.D. of control−O.D. of test group)/O.D. of control]×100
# [6] = read-out: cell viability, 6-hydroxydopamine-induced cell death
# [7] = read-out: cell viability, beta-amyloid-induced cell death
# [8] = read-out: cell viability, hydrogen peroxide-induced cell death
smiles,measurement,setting,value
O=C1/C(=C/c2ccc(O)c(O)c2)Oc2cc(O)ccc21 [sulfuretin],β-CTF level,[1],significantly inhibited
same,viability at 0.1 µg/mL,[2]; sulfuretin 0.1 μg/ml,≥ 44%
same,viability at 0.5 µg/mL,[2]; sulfuretin 0.5 μg/ml,≥ 56%
same,viability at 1 µg/mL,[2]; sulfuretin 1 μg/ml,≥ 64%
same,viability at 5 µg/mL,[2]; sulfuretin 5 μg/ml,≥ 163%
same,amyloid beta25-35-mediated increases in phosphorylation of Tau proteins,[3],significantly inhibited
same,cell viability (MTT reduction),[4],significantly increased
same,viability at 0.1 µg/mL,[5]; [6],≥ 87%
same,viability at 0.5 µg/mL,[5]; [6],≥ 97%
same,viability at 1 µg/mL,[5]; [6],≥ 112%
same,viability at 5 µg/mL,[5]; [6],≥ 140%
same,viability at 0.1 µg/mL,[5]; [7],≥ 58%
same,viability at 0.5 µg/mL,[5]; [7],≥ 64%
same,viability at 1 µg/mL,[5]; [7],≥ 80%
same,viability at 5 µg/mL,[5]; [7],≥ 97%
same,viability at 0.1 µg/mL,[5]; [8],≥ 74%
same,viability at 0.5 µg/mL,[5]; [8],≥ 97%
same,viability at 1 µg/mL,[5]; [8],≥ 119%
same,viability at 5 µg/mL,[5]; [8],≥ 103%

# From US20150031760A1, “PHARMACEUTICAL COMPOSITION FOR PREVENTING OR TREATING NERVOUS SYSTEM DISORDERS COMPRISING SULFURETIN OR PHARMACEUTICALLY ACCEPTABLE SALT THEREOF” (Research and Business Foundation SUNGKYUNKWAN UNIVERSITY, priority 2010, published 2015)
